pIC50: −log10 of the molar value.
Tests used:
Huh7 tumors = Huh7 tumors in NU/J mice; type: in vivo, mouse; conditions: Huh7
Protocol: FIGS. 26A-26H: Raldh1-INH suppresses HCC growth by altering macrophage functions. FIG. 26A: Huh7 tumor-bearing NU/J mice were treated with C86 (i.p, 10 mg/kg) every day starting when tumor size was approximately 50 mm^3. Tumor volume was measured every 2 days. […] Three or more independent experiments were performed with at least three replicates per experimental group. Unpaired t test, two-tailed. FIG. 26B: AldeRed assay at endpoint on Huh7 tumor treated as described in FIG. 26A. […] Three or more independent experiments were performed with at least three replicates per experimental group. Unpaired t test, two-tailed. FIG. 26C: Huh7 tumor-bearing nude mice were treated with different dose of C86 every day. Tumor volume was measured every 2-3 days. […] Two independent experiments were performed with at least three replicates per experimental group. Unpaired t test, two-tailed. FIG. 26D: Body weight measured every 3-5 days for the experiment outlined in FIG. 26C. FIG. 26E: Parental Huh7 or RALDH1-KO Huh7 cells were implanted subcutaneously into NU/J mice and treated with C86 (i.p, 10 mg/kg) or vehicle (control) every day. […] Three or more independent experiments were performed with at least three replicates per experimental group. Unpaired t test, two-tailed. FIG. 26F: Huh7 tumor-bearing NU/J mice were treated with clodronate liposomes (CloLipo) and/or C86. […] Two independent experiments were performed with at least three replicates per experimental group. Unpaired t test, two-tailed. FIG. 26G: Murine Hepa 1-6 tumors were implanted subcutaneously into C57BL6/J WT mice or LyMCre:RosadnRAR mice. Expression of the dominant negative RAR in myeloid cells slows tumor growth. Two independent experiments were performed with at least three replicates per experimental group. Unpaired t test, two-tailed. FIG. 26H: Huh7 cells were implanted subcutaneously into NU/J mice. When tumor size reached about 50 mm^3, mice were intraperitoneally injected vehicle (control) or C86 daily with or without BMS493 treatment intratumorally every 3 days. BMS493 and C86 suppress tumor growth with the combination showing higher suppression than monotherapy. *, P<0.05; **, P<0.01; ***, P<0.001; n.s., not significant.
Cultured Huh7, Huh1, Hepa 1-6, Hep55, and FS (as indicated in figure legends) tumor cells were detached using 0.25% trypsin (Gibco, catalog #25200056), washed once with 1×PBS, and counted before implantation. 3~6×10^6 tumor cells were implanted subcutaneously (s.c.) into shaved flanks of recipient mice. Tumor dimensions were measured using a caliper starting at the day indicated in the accompanying figure legend and every two to three days thereafter; volume was calculated by using formula Length*Width^2/2. Tumor volumes of 2,000 mm^3, tumor length of 2 cm or tumor ulceration were used as endpoints for survival analyses.
Compound-86, 97 and 99 powder was dissolved in 20% HPβCD saline (2-Hydroxypropyl)-[…]). Drug was administered i.p. or p.o. starting when tumor volume reached 50-150 mm^3 and repeated every day.

[1] = test system: macrophages from primary human monocytes; assay: Numbers of live monocyte-derived macrophages in vitro; type: cell-based; conditions: C86 treated TCM or BMS493; three days
Protocol: (§1) FIGS. 24A-24E: Raldh1-INH blocks tumor supportive functions of monocytes and macrophages. FIG. 24A: Circulating primary human monocytes were collected from donors and cultured with MCSF (50 ng/mL) to generate macrophages. On day 3 of these cultures, DMSO or RA (100 nmol/L) was added to generate control monocyte-derived macrophages (Control-MoDM) or RA monocyte-derived macrophages (RA-MoDM), respectively. On day 7 of these cultures, macrophages were collected for each well after washing with 1×PBS, mixed with Huh7 cells at approximately 50:50 ratio, and the mix injected into the flanks of NU/J mice. Huh7 tumors cells that were not mixed with any macrophages before flank injection served as an additional control. Tumor volume was measured every 2 days (left graph). 19 days after tumor injection, mice were sacrificed and tumor weight (right graph) was measured. […] Three or more independent experiments were performed with at least three replicates per experimental group. Unpaired t test, two-tailed. […] Tumor growth was monitored daily (left graph). 13 days after tumor cell transplantation, mice were sacrificed and tumor weight measured (right graph). […] Three days later, cells were harvested, counted, and stained with PI for FCS analyses. […] Cell proliferation was measured by counting live cell numbers (y-axis). […] 72 hours later, the cells were washed, counted, and analyzed by FCS. […]

human HCC lines = assay: Human HCC lines cocultured with pretreated macrophages; type: cell-based; conditions: macrophages exposed to BMS493
Protocol: as §1

SNU398 human HCC cells = assay: AldeRed (Aldefluor) assay in SNU398 cells; type: cell-based
Protocol: The AldeRed assay (EMD Millipore) was performed according to manufacturer's instructions to identify cells with ALDH activity. In brief, single-cell suspensions of Huh7, Huh1, SNU449, SNU398, HEP3B, PLC, Hepa 1-6, Hep55, and AL458A cultured cells or single-cell suspension generated from enzymatic digestion of tumors generated from transplantation of these cells in mice (as indicated in figure legends) were incubated with a fluorescent and non-toxic ALDH substrate (AldeRed 588-A); the fluorescent product accumulates in cells proportional to their ALDH activity. The amount of fluorescence produced is measured by flow cytometry. The ALDH inhibitor diethylaminobenzaldehyde (DEAB, provided with the AldeRed assay kit) was used as a negative control for background fluorescence assessment.
(§2) The Aldefluor assay has been used to identify and isolate cells with high ALDH activities. This assay is based on the principle that ALDH can convert the ALDH-substrate, Bodipy-aminoacetaldehyde (BAAA) into Bodipy-aminoacetate (BAA) which is retained inside the cells. BAAA is uncharged and can diffuse freely into intact viable cells, however BAA cannot cross the membrane due to its net negative charge, which makes remain in the cells and the assay buffer prevents efflux of the BAA from the cells. Therefore, the amount of BAA fluorescence in cells is proportional to ALDH activity and can be measured using a flow cytometer. A specific inhibitor of ALDH, diethylaminobenzaldehyde (DEAB), is used for background fluorescence control.

hALDHIA1 = target: T1, hALDHIA1 (Homo sapiens, UniProt P00352); assay: hALDH1A1 inhibition (Table 4); type: biochemical
T1 sequence (P00352 1-501): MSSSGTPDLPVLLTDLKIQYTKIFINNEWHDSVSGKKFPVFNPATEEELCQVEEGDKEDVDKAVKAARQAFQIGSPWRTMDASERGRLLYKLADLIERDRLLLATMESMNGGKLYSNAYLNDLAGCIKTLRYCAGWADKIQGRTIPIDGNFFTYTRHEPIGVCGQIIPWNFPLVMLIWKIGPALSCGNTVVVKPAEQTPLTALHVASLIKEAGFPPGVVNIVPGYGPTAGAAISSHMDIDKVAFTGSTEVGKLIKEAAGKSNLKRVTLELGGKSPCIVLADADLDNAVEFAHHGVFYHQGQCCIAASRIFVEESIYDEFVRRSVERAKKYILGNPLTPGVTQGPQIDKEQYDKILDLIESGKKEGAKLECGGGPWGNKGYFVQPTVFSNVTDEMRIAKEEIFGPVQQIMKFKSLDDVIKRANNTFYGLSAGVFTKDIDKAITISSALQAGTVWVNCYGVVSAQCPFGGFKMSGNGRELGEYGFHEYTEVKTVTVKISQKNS
Protocol: (§3) Compounds ALDH inhibitory effects of C-9125, C-9163, and C-9175 were evaluated in a number of cell lines, including MiaPaCa2 and OV90 cell lines, utilizing the AldeFlour assay described elsewhere herein (Table 4).

MiaPaCa2 cells = assay: AldeFlour assay in MiaPaCa2 cells; type: cell-based; conditions: Homo sapiens, MIA PaCa-2, read-out: MiaPaCa cells IC50
Description: as §2, §3

[2] = test system: Hepa1-6 (mouse HCC cell line); assay: LC-MS for ATRA in Hepa1-6 cells; conditions: 1,000 nmol/L, 24 hours
[3] = test system: SNU398 (human HCC cell line); assay: LC-MS for ATRA in SNU398 cells; conditions: C86 100 nmol/L, WIN18446 1,000 nmol/L, 24 hours

SMILES: CC1(C)CC=C(C#Cc2ccccc2)c2cc(/C=C/c3ccc(C(=O)O)cc3)ccc21 [BMS 493, (E)-4-(2-(5,5-dimethyl-8-(phenylethynyl)-5,6-dihydronaphthalen-2-yl)vinyl)benzoic acid, reference compound]
- tumor mass and volume (Huh7 tumors; intraperitoneal administration, compared to a control (FIGS. 12B-12C)): significant reduction in tumor mass and volume
- RA and tumor-CM induced increase in macrophage numbers [1]: reversed
- increase of tumor cell numbers by RA pre-treated macrophages (human HCC lines): this effect was reversed

SMILES: N#CC1(c2ccccc2)CCN(c2c(C(=O)N[C@H]3CC[C@H](O)CC3)cnc3ccc(F)cc23)CC1 [Compound C-97, 4-(4-cyano-4-phenylpiperidin-1-yl)-6-fluoro-N-((1r,4r)-4-hydroxycyclohexyl)quinoline-3-carboxamide]
- tumor mass and volume (Huh7 tumors; C-86 versus C-97 (FIGS. 17A-17B)): significant reduction in tumor mass and volume
- tumor suppressive activity relative to C-86 (Huh7 tumors; FIGS. 17A-17B): enhanced tumor suppressive activity as compared to C-86
- ALDH activity compared to the DMSO control (SNU398 human HCC cells; SNU398, 1 nM): partial inhibition
- concentration giving essentially complete inhibition of ALDH (SNU398 human HCC cells; SNU398, Aldefluor assay): ≥ 10 nM

SMILES: N#CC1(c2ccc(-c3c(C(=O)N[C@H]4CC[C@H](O)CC4)cnc4ccc(F)cc34)cc2)CC1 [Compound C-9125, 4-(4-(1-cyanocyclopropyl)phenyl)-6-fluoro-N-((1r,4r)-4-hydroxycyclohexyl)quinoline-3-carboxamide]
- pIC50 (hALDHIA1): 8.15
- pIC50 (MiaPaCa2 cells): 6.89

SMILES: N#CC1(c2ccc(-c3c(C(=O)Nc4cnn(CCO)c4)cnc4ccc(F)cc34)cc2)CC1 [Compound C-9163, 4-(4-(1-cyanocyclopropyl)phenyl)-6-fluoro-N-(1-(2-hydroxyethyl)-1H-pyrazol-4-yl)quinoline-3-carboxamide]
- pIC50 (hALDHIA1): 8.40
- pIC50 (MiaPaCa2 cells): 7.03

SMILES: N#CC1(c2ccccc2)CCN(c2c(C(=O)Nc3cnn(CCO)c3)cnc3ccc(F)cc23)CC1 [Compound C-9175, 4-(4-cyano-4-phenylpiperidin-1-yl)-6-fluoro-N-(1-(2-hydroxyethyl)-1H-pyrazol-4-yl)quinoline-3-carboxamide]
- pIC50 (hALDHIA1): 8.22
- pIC50 (MiaPaCa2 cells): 7.92

SMILES: O=C(NCCCCCCCCNC(=O)C(Cl)Cl)C(Cl)Cl [WIN18446]
- ATRA by LC-MS (RALDH1 inhibition) [2]: inhibits both murine and human RALDH1
- ATRA by LC-MS (RALDH1 inhibition) [3]: inhibits both murine and human RALDH1
